{
  "source": "patent US9561233B2",
  "about": "“Use of ibogaine for the treatment of pain” (DemeRX, Inc., priority 2014, dated 2017)",
  "key": {"[1]": {"tested_on": "pain in patients", "test": "human clinical studies of ibogaine dosing, alleviation of pain", "assay_type": "in vivo", "conditions": "lower dosing of ibogaine (lower end of prior-art range 0.01 to 1000 mg/kg body weight)", "experimental": "While ibogaine has been disclosed for treatment of substance addiction, its use in humans is complicated by the fact that the ranges in the prior art are exceptionally broad (0.01 to 1000 mg/kg body weight)."}, "[2]": {"tested_on": "QT interval", "test": "QT interval of patients treated with ibogaine", "assay_type": "in vivo, human", "conditions": "higher dosing unacceptable", "excerpt": "A prolonged QT interval is a marker of potential Torsades de Pointes, a serious arrhythmia that can result in death.\nAs used herein, the term “QT interval” refers to the measure of the time between the start of the Q wave and the end of the T wave in the electrical cycle of the heart. Prolongation of the QT interval refers to an increase in the QT interval."}},
  "data": [
    {"smiles": "CCC1CC2CC3c4[nH]c5ccc(OC)cc5c4CCN(C2)C13", "note": "(centres unmarked) [ibogaine]", "values": [
      {"measurement": "impact on the alleviation of pain in patients", "setting": "[1]", "result": "minimal impact"},
      {"measurement": "prolongation of the treated patient's QT interval", "setting": "[2]", "result": "dose dependent prolongation"}
    ]}
  ]
}
